Source: PubChem BioAssay (NCI)
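1) Cells in 96-well plates. 2) Compound, 48 h, 5 concentrations. 3) Linear interpolation between surrounding doses. 4) Unreached endpoint = highest concentration. At the TGI there is no net growth.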

Tests used:
Experiment in all cases: inhibition of tumour cell growth, NCI panel, 48 h
EKVX NSCLC = system: EKVX NSCLC
CCRF-CEM leukemia = system: CCRF-CEM leukemia
XF 498 CNS = system: XF 498 CNS
SF-539 CNS = system: SF-539 CNS
SW-620 colon = system: SW-620 colon
M14 melanoma = system: M14 melanoma
HT29 colon = system: HT29 colon
A549 NSCLC = system: A549 NSCLC
NCI-H23 lung = system: NCI-H23 lung
COLO 205 colon = system: COLO 205 colon
UACC-62 melanoma = system: UACC-62 melanoma
HOP-92 NSCLC = system: HOP-92 NSCLC
DMS 114 small cell lung = system: DMS 114 small cell lung
CAKI-1 renal = system: CAKI-1 renal
MOLT-4 leukemia = system: MOLT-4 leukemia
SN12C renal = system: SN12C renal
M19-MEL melanoma = system: M19-MEL melanoma
HCT-15 colon = system: HCT-15 colon
NCI-H522 lung = system: NCI-H522 lung
RPMI-8226 leukemia = system: RPMI-8226 leukemia
DMS 273 small cell lung = system: DMS 273 small cell lung
IGROV1 ovarian = system: IGROV1 ovarian
HCC-2998 colon = system: HCC-2998 colon
SNB-75 CNS = system: SNB-75 CNS
OVCAR-3 ovarian = system: OVCAR-3 ovarian
SK-MEL-28 melanoma = system: SK-MEL-28 melanoma
LOX IMVI melanoma = system: LOX IMVI melanoma
LXFL 529 NSCLC = system: LXFL 529 NSCLC
SNB-78 CNS = system: SNB-78 CNS
SK-MEL-5 melanoma = system: SK-MEL-5 melanoma
TK-10 renal = system: TK-10 renal
K-562 leukemia = system: K-562 leukemia
OVCAR-4 ovarian = system: OVCAR-4 ovarian
NCI-H226 lung = system: NCI-H226 lung
SK-OV-3 ovarian = system: SK-OV-3 ovarian
HL-60(TB) leukemia = system: HL-60(TB) leukemia
OVCAR-8 ovarian = system: OVCAR-8 ovarian
UACC-257 melanoma = system: UACC-257 melanoma
KM12 colon = system: KM12 colon
NCI-H460 lung = system: NCI-H460 lung
NCI/ADR-RES ovarian = system: NCI/ADR-RES ovarian
U251 CNS = system: U251 CNS
786-0 renal = system: 786-0 renal
SF-268 CNS = system: SF-268 CNS
HCT-116 colon = system: HCT-116 colon
ACHN renal = system: ACHN renal
PC-3 prostate = system: PC-3 prostate
RXF 393 renal = system: RXF 393 renal
MALME-3M melanoma = system: MALME-3M melanoma
T-47D breast = system: T-47D breast
A498 renal = system: A498 renal
SK-MEL-2 melanoma = system: SK-MEL-2 melanoma
SNB-19 CNS = system: SNB-19 CNS
MCF7 breast = system: MCF7 breast
HOP-62 NSCLC = system: HOP-62 NSCLC
MDA-MB-231 breast = system: MDA-MB-231 breast
OVCAR-5 ovarian = system: OVCAR-5 ovarian
SR leukemia = system: SR leukemia
DU-145 prostate = system: DU-145 prostate
HS 578T breast = system: HS 578T breast
SF-295 CNS = system: SF-295 CNS
BT-549 breast = system: BT-549 breast
MDA-MB-435 = system: MDA-MB-435
MDA-N = system: MDA-N

CCN(CC)CSc1nc2ccccc2s1
TGI (EKVX NSCLC): > 100 µM
TGI (CCRF-CEM leukemia): > 100 µM
TGI (XF 498 CNS): > 100 µM
TGI (SF-539 CNS): > 100 µM
TGI (SW-620 colon): > 100 µM
TGI (M14 melanoma): > 100 µM
TGI (HT29 colon): > 100 µM
TGI (A549 NSCLC): > 100 µM
TGI (NCI-H23 lung): > 100 µM
TGI (COLO 205 colon): > 100 µM
TGI (UACC-62 melanoma): > 100 µM
TGI (HOP-92 NSCLC): > 100 µM
TGI (DMS 114 small cell lung): > 100 µM
TGI (CAKI-1 renal): > 100 µM
TGI (MOLT-4 leukemia): > 100 µM
TGI (SN12C renal): > 100 µM
TGI (M19-MEL melanoma): > 100 µM
TGI (HCT-15 colon): > 100 µM
TGI (NCI-H522 lung): > 100 µM
TGI (RPMI-8226 leukemia): > 100 µM
TGI (DMS 273 small cell lung): > 100 µM
TGI (IGROV1 ovarian): > 100 µM
TGI (HCC-2998 colon): > 100 µM
TGI (SNB-75 CNS): > 100 µM
TGI (OVCAR-3 ovarian): > 100 µM
TGI (SK-MEL-28 melanoma): > 100 µM
TGI (LOX IMVI melanoma): > 100 µM
TGI (LXFL 529 NSCLC): > 100 µM
TGI (SNB-78 CNS): > 100 µM
TGI (SK-MEL-5 melanoma): > 100 µM
TGI (TK-10 renal): > 100 µM
TGI (K-562 leukemia): > 100 µM
TGI (OVCAR-4 ovarian): > 100 µM
TGI (NCI-H226 lung): > 100 µM
TGI (SK-OV-3 ovarian): > 100 µM
TGI (HL-60(TB) leukemia): > 100 µM
TGI (OVCAR-8 ovarian): > 100 µM
TGI (UACC-257 melanoma): > 100 µM
TGI (KM12 colon): > 100 µM

O=C1C=C2C(=NC34CCCCC3C(c3ccccc3)C3=C(c5ccccc5CC3)N24)c2ccccc21 (configuration not stated)
TGI (EKVX NSCLC): > 10 µM
TGI (NCI-H460 lung): > 10 µM
TGI (CCRF-CEM leukemia): > 10 µM
TGI (NCI/ADR-RES ovarian): > 10 µM
TGI (SF-539 CNS): > 10 µM
TGI (U251 CNS): > 10 µM
TGI (SW-620 colon): > 10 µM
TGI (786-0 renal): > 10 µM
TGI (M14 melanoma): > 10 µM
TGI (SF-268 CNS): > 10 µM
TGI (HT29 colon): > 10 µM
TGI (HCT-116 colon): > 10 µM
TGI (A549 NSCLC): > 10 µM
TGI (NCI-H23 lung): > 10 µM
TGI (COLO 205 colon): > 10 µM
TGI (ACHN renal): > 10 µM
TGI (UACC-62 melanoma): > 10 µM
TGI (HOP-92 NSCLC): > 10 µM
TGI (CAKI-1 renal): > 10 µM
TGI (PC-3 prostate): > 10 µM
TGI (MOLT-4 leukemia): > 10 µM
TGI (RXF 393 renal): > 10 µM
TGI (MALME-3M melanoma): > 10 µM
TGI (SN12C renal): > 10 µM
TGI (T-47D breast): > 10 µM
TGI (HCT-15 colon): > 10 µM
TGI (NCI-H522 lung): > 10 µM
TGI (RPMI-8226 leukemia): > 10 µM
TGI (IGROV1 ovarian): > 10 µM
TGI (HCC-2998 colon): > 10 µM
TGI (SNB-75 CNS): > 10 µM
TGI (A498 renal): > 10 µM
TGI (OVCAR-3 ovarian): > 10 µM
TGI (SK-MEL-28 melanoma): > 10 µM
TGI (LOX IMVI melanoma): > 10 µM
TGI (SK-MEL-2 melanoma): > 10 µM
TGI (SNB-19 CNS): > 10 µM
TGI (MCF7 breast): > 10 µM
TGI (SK-MEL-5 melanoma): > 10 µM
TGI (TK-10 renal): > 10 µM
TGI (HOP-62 NSCLC): > 10 µM
TGI (K-562 leukemia): > 10 µM
TGI (OVCAR-4 ovarian): > 10 µM
TGI (MDA-MB-231 breast): > 10 µM
TGI (OVCAR-5 ovarian): > 10 µM
TGI (NCI-H226 lung): > 10 µM
TGI (SR leukemia): > 10 µM
TGI (DU-145 prostate): > 10 µM
TGI (HS 578T breast): > 10 µM
TGI (SK-OV-3 ovarian): > 10 µM
TGI (SF-295 CNS): > 10 µM
TGI (HL-60(TB) leukemia): > 10 µM
TGI (OVCAR-8 ovarian): > 10 µM
TGI (BT-549 breast): > 10 µM
TGI (UACC-257 melanoma): > 10 µM
TGI (MDA-MB-435): > 10 µM
TGI (KM12 colon): > 10 µM
TGI (MDA-N): > 10 µM
